# Laboratory results as given in ChEMBL document CHEMBL6071148, “Synthesis and biological evaluation of novel 3,6- amide and thioamide substituted- 2,3,4,9-tetrahydro-1H-carbazoles for anti-cancer activity” (Eur J Med Chem, 2024).
# Activity calls are given as the source filed them. The rule behind the calls is not given here.
# Legend:
# [1] = tested on: MCF7; assay: Inhibition of colony formation in human MCF7 cells assessed as reduction in clonogenic capacity incubated for 24 hrs by crystal violet staining based analysis; assay type: functional, cell-based
# [2] = tested on: Mitochondrial membrane; assay: Disruption of mitochondrial membrane potential in human A549 cells assessed as translocation of cytochrome c to cytoplasm at IC50 incubated for 48 hrs by confocal microscopic analysis; assay type: cell membranes
# [3] = tested on: Mitochondrial membrane; assay: Disruption of mitochondrial membrane integrity in human A549 cells assessed as disruption of normal mitochondrial distribution by TEM analysis; assay type: cell membranes
# [4] = tested on: A549; assay: Antitumor activity against human A549 cells xenografted in chicken embryo chorioallantoic membrane assessed as reduction in tumor size; assay type: functional, cell-based; conditions: dose 1.5-4.5 µM
# [5] = tested on: MCF7; assay: Antitumor activity against human MCF7 cells xenografted in chicken embryo chorioallantoic membrane assessed as necrosis at 1.5 to 4.5 uM by H and E staining based analysis; assay type: functional, cell-based; conditions: dose 1.5-4.5 µM
# [6] = tested on: A549; assay: Induction of cell cycle arrest in human A549 cells assessed as accumulation of cells at G1 phase at IC50 incubated for 24 hrs by PI staining based flow cytometric analysis (reference value: 37.40 +/- 2.40%); assay type: functional
# [7] = tested on: MCF7; assay: Antitumor activity against human MCF7 cells xenografted in chicken embryo chorioallantoic membrane assessed as reduction in tumor size; assay type: functional, cell-based; conditions: dose 1.5-4.5 µM
# [8] = tested on: Mitochondrial membrane; assay: Disruption of mitochondrial membrane integrity in human MCF7 cells assessed as presence of large mitochondria by TEM analysis; assay type: cell membranes
# [9] = tested on: Mitochondrial membrane; assay: Induction of mitochondrial membrane depolarization in human A549 cells assessed as decrease in ratio of J-aggregates to J-monomer incubated for 24 hrs by JC-1 staining based flow cytometric analysis (reference value: 17.72 +/- 3.94%); assay type: cell membranes
# [10] = tested on: A549; assay: Antitumor activity against human A549 cells xenografted in chicken embryo chorioallantoic membrane assessed as change in nuclear morphology at 1.5 to 4.5 uM by H and E staining based analysis; assay type: functional, cell-based; conditions: dose 1.5-4.5 µM
# [11] = tested on: Mitochondrial membrane; assay: Disruption of mitochondrial membrane integrity in human MCF7 cells assessed as absence of well-developed cristae by TEM analysis; assay type: cell membranes
# [12] = tested on: MCF7; assay: Induction of DNA damage in human MCF7 cells assessed as gammaH2AX positive cells at IC50 incubated for 48 hrs by PI staining based flow cytometric analysis (reference value: 7.58 +/- 1.23%); assay type: functional
# [13] = tested on: A549; assay: Induction of cell cycle arrest in human A549 cells assessed as accumulation of cells at S phase at IC50 incubated for 48 hrs by PI staining based flow cytometric analysis (reference value: 17.825 +/- 3.70%); assay type: functional
# [14] = tested on: MCF7; assay: Induction of apoptosis in human MCF7 cells assessed as increase in apoptotic cells incubated for 48 hrs by Annexin-V and 7-AAD staining based flow cytometric analysis (reference value: 7.53 +/- 1.16%); assay type: functional
# [15] = tested on: A549; assay: Induction of cell cycle arrest in human A549 cells assessed as accumulation of cells at S phase at IC50 incubated for 24 hrs by PI staining based flow cytometric analysis (reference value: 39.41 +/- 2.54%); assay type: functional
# [16] = tested on: A549; assay: Induction of cell cycle arrest in human A549 cells assessed as accumulation of cells at G2 phase at IC50 incubated for 24 hrs by PI staining based flow cytometric analysis (reference value: 23.45 +/- 1.62%); assay type: functional
# [17] = tested on: A549; assay: Inhibition of colony formation in human A549 cells assessed as reduction in clonogenic capacity incubated for 24 hrs by crystal violet staining based analysis; assay type: functional, cell-based
# [18] = tested on: HCT-116; assay: Inhibition of colony formation in human HCT-116 cells assessed as reduction in clonogenic capacity incubated for 24 hrs by crystal violet staining based analysis; assay type: functional, cell-based
# [19] = tested on: A549; assay: Induction of apoptosis in human A549 cells assessed as apoptotic rate at IC50 incubated for 48 hrs by Annexin-V and 7-AAD staining based flow cytometric analysis (reference value: 6.56 +/- 1.17%); assay type: functional
# [20] = tested on: MCF7; assay: Induction of cell cycle arrest in human MCF7 cells assessed as accumulation of cells at G2 phase at IC50 incubated for 24 hrs by PI staining based flow cytometric analysis relative to control; assay type: functional
# [21] = tested on: A549; assay: Inhibition of cell adhesion in human A549 cells assessed as reduction in cell aggregates formation at IC50 incubated for 48 hrs by inverted phase contrast microscopic analysis; assay type: functional, cell-based
# [22] = tested on: Mitochondrial membrane; assay: Induction of mitochondrial membrane depolarization in human MCF7 cells assessed as increase in mitochondrial fission by measuring appearance of shortened mitochondria by confocal microscopic analysis; assay type: cell membranes
# [23] = tested on: Mitochondrial membrane; assay: Disruption of mitochondrial membrane integrity in human MCF7 cells assessed as organization of mtDNA nucleoids within cells by TEM analysis; assay type: cell membranes
# [24] = tested on: Mitochondrial membrane; assay: Disruption of mitochondrial membrane integrity in human A549 cells assessed as change in mitochondrial internal organization by TEM analysis; assay type: cell membranes
# [25] = tested on: A549; assay: Induction of apoptosis in human A549 cells assessed as apoptotic rate at IC50 incubated for 24 hrs by Annexin-V and 7-AAD staining based flow cytometric analysis (reference value: 4.56 +/- 0.81%); assay type: functional
# [26] = tested on: Mitochondrial membrane; assay: Disruption of mitochondrial membrane integrity in human A549 cells assessed as presence of large mitochondria by TEM analysis; assay type: cell membranes
# [27] = tested on: HCT-116; assay: Cytotoxicity against human HCT-116 cells assessed as inhibition of cell proliferation incubated for 72 hrs by MTT assay; assay type: functional, cell-based; conditions: HCT-116, 72 h
# [28] = tested on: Mitochondrial membrane; assay: Disruption of mitochondrial membrane potential in human MCF7 cells assessed as translocation of cytochrome c to cytoplasm at IC50 incubated for 48 hrs by confocal microscopic analysis; assay type: cell membranes
# [29] = tested on: Mitochondrial membrane; assay: Disruption of mitochondrial membrane integrity in human MCF7 cells assessed as mitochondrial swelling by TEM analysis; assay type: cell membranes
# [30] = tested on: Mitochondrial membrane; assay: Disruption of mitochondrial membrane integrity in human MCF7 cells assessed as disruption of normal mitochondrial distribution by TEM analysis; assay type: cell membranes
# [31] = tested on: MCF7; assay: Induction of cell cycle arrest in human MCF7 cells assessed as accumulation of cells at S phase at IC50 incubated for 48 hrs by PI staining based flow cytometric analysis; assay type: functional
# [32] = tested on: Mitochondrial membrane; assay: Disruption of mitochondrial membrane integrity in human A549 cells assessed as organization of mtDNA nucleoids within cells by TEM analysis; assay type: cell membranes
# [33] = tested on: Mitochondrial membrane; assay: Induction of mitochondrial membrane depolarization in human A549 cells assessed as increase in mitochondrial fission by measuring appearance of spherical mitochondria by confocal microscopic analysis; assay type: cell membranes
# [34] = Cytotoxicity against human MRC5 cells assessed as inhibition of cell proliferation incubated for 72 hrs by MTT assay; assay type: toxicity, cell-based
# [35] = tested on: Chorioallantoic membrane; assay: Anti-angiogenesis activity in chicken embryo chorioallantoic membrane assessed as reduction in blood vessel formation by imaging analysis; assay type: functional, tissue-based; conditions: Gallus gallus, TDE = time-dependent effect
# [36] = tested on: Mitochondrial membrane; assay: Induction of mitochondrial membrane depolarization in human A549 cells assessed as increase in mitochondrial fission by measuring appearance of shortened mitochondria by confocal microscopic analysis; assay type: cell membranes
# [37] = tested on: Mitochondrial membrane; assay: Disruption of mitochondrial membrane integrity in human A549 cells assessed as change in mitochondrial shape by TEM analysis; assay type: cell membranes
# [38] = tested on: Mitochondrial membrane; assay: Induction of mitochondrial membrane depolarization in human MCF7 cells assessed as increase in mitochondrial fission by measuring appearance of spherical mitochondria by confocal microscopic analysis; assay type: cell membranes
# [39] = tested on: Mitochondrial membrane; assay: Disruption of mitochondrial membrane integrity in human A549 cells assessed as presence of bloated mitochondria by TEM analysis; assay type: cell membranes
structure (smiles),measurement,setting,value
CC(=S)NC1CCc2[nH]c3ccc(Br)cc3c2C1 (centres undefined),inhibition,[1],Dose-Dependent Effect
same,Activity,[2],Active
same,Activity,[3],Active
same,Activity,[4],Dose-Dependent Effect
same,Activity,[5],Active
same,Activity,[6],31.6%
same,Activity,[7],Dose-Dependent Effect
same,Activity,[8],Active
same,Activity,[9],8.73
same,Activity,[10],Active
same,Activity,[11],Active
same,Activity,[12],16.78%
same,Activity,[13],30.8%
same,Activity,[14],47.28%
same,Activity,[15],27.15%
same,Activity,[16],14.3%
same,inhibition,[17],Dose-Dependent Effect
same,inhibition,[18],Dose-Dependent Effect
same,Activity,[19],42.87%
same,Activity,[20],25.95%
same,inhibition,[21],Active
same,Activity,[22],Active
same,Activity,[23],Active
same,Activity,[24],Active
same,Activity,[25],20.75%
same,Activity,[26],Active
same,IC50,[27],40 µM
same,Activity,[28],Active
same,Activity,[29],Active
same,Activity,[30],Active
same,Activity,[31],Active
same,Activity,[32],Active
same,Activity,[33],Active
same,IC50 at 72 h,[34],> 50 µM
same,Activity,[35],Tde
same,Activity,[36],Active
same,Activity,[37],Active
same,Activity,[38],Active
same,Activity,[39],Active
